{
  "source": "patent US8729088B2",
  "about": "“Toll-like receptor modulators and treatment of diseases” (The Regents of the University of California, priority 2009, dated 2014)",
  "key": {"TLR7 [1]": {"biological_target": "T1, TLR7 (Homo sapiens, UniProt Q9NYK1)", "T1 construct": "endogenous in cells; host or cells: human PBMC from buffy coats (The San Diego Blood Bank)", "T1 sequence (Q9NYK1 27-1049)": "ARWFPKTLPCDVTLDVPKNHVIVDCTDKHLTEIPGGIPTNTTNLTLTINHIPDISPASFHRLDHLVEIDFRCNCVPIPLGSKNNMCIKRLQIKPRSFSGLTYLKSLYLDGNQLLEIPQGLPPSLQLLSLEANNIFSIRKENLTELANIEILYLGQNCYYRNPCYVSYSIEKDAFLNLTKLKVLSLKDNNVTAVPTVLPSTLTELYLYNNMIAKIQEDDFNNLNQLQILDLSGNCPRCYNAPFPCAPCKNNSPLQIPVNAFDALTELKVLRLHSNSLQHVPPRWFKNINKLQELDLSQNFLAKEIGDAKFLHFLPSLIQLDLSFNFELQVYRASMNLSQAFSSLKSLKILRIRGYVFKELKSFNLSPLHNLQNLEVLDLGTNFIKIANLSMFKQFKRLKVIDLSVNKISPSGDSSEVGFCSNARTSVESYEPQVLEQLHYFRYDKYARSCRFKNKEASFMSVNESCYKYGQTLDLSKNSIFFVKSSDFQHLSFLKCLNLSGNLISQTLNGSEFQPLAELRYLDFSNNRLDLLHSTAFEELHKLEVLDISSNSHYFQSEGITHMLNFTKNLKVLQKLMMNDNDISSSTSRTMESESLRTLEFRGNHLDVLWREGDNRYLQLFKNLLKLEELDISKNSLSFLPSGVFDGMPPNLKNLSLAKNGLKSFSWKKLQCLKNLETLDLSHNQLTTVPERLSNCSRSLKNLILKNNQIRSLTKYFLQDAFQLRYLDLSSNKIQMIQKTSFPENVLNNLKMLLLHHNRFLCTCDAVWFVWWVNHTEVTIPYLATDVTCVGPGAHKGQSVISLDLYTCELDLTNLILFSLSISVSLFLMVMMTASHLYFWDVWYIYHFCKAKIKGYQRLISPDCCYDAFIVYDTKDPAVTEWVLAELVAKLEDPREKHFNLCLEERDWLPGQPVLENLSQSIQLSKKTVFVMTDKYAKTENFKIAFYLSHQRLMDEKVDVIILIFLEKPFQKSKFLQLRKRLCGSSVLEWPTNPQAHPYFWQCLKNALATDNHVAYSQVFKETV", "test": "Cytokine induction in human PBMC, LUMINEX bead assay", "format": "cell-based", "conditions": "18 hours", "experimental": "Human blood peripheral mononuclear cells (PBMC) were isolated from human buffy coats, purchased from The San Diego Blood Bank (San Diego, Calif.), as described in Hayashi, T et al., “Enhancement of innate immunity against Mycobacterium avium infection by immunostimulatory DNA is mediated by indoleamine 2,3-dioxygenase”, Infect Immun 69:6156-64, (2001). PBMC (1×10^6/mL) were incubated with various concentrations of TLR7 conjugates for 18 hours at 37° C., 5% CO2 and culture supernatants were collected. The levels of cytokines (IL-6, TNF-α, or IFNα1) in the supernatants were determined by LUMINEX bead assays (Invitrogen, Carlsbad, Calif.), and the results presented in FIG. 3A-B. Data are mean±SEM of triplicates and are representative of three independent experiments. The minimum detection levels of IL-6, TNF-α, and IFNα1 were 6 pg/mL, 10 pg/mL and 15 pg/mL, respectively.\nTo further investigate the immunological activities in human cells, human PBMC from three donors were treated with TLR7 conjugates and the levels of IL-6 and IFNa1 were determined by LUMINEX assay (FIG. 3A-B)."}, "TLR7 [2]": {"biological_target": "T2, TLR7 (Mus musculus, UniProt P58681)", "T2 sequence (P58681 27-1050)": "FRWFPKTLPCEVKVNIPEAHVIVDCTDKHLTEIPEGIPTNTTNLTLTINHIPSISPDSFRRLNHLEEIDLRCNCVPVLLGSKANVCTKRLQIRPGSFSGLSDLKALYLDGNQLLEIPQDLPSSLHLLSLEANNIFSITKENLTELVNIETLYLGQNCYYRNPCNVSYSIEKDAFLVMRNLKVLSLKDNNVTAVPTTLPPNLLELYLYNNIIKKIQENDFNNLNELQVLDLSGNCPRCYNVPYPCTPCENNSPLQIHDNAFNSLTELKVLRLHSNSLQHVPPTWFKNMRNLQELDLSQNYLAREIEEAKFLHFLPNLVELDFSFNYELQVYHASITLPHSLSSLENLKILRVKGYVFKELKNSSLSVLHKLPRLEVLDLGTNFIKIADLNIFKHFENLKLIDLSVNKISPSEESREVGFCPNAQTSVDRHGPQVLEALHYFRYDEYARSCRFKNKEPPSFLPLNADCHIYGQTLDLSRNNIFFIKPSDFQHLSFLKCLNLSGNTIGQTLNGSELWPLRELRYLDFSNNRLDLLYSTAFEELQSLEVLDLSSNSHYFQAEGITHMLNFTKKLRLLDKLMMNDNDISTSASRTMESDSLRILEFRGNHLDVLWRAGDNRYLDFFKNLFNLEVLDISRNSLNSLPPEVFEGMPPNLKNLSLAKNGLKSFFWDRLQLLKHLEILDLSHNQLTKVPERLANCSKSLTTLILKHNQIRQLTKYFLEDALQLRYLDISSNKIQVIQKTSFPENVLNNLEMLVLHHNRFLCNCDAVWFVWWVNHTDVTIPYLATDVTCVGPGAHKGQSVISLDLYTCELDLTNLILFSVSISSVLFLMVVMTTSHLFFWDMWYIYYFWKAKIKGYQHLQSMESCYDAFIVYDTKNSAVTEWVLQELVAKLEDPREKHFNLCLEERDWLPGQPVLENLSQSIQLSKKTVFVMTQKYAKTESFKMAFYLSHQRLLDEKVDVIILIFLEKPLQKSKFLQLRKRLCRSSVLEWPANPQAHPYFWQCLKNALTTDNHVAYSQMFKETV", "test": "Cytokine induction in BMDM from wild type and TLR7 deficient mice", "format": "cell-based", "parameters": "endogenous in cells; host or cells: primary BMDM from C57BL/6 mice", "conditions": "wild type BMDM", "experimental": "In vitro measurements of cytokine induction were performed using the mouse leukemic monocyte macrophage cell line, RAW264.7. […] BMDM were prepared from C57BL/6 and TLR7 deficient mice as described in Wu, C. C et al., (2007) “Immunotherapeutic activity of a conjugate of a Toll-like receptor 7 ligand”, Proc Natl Acad Sci USA 104, 3990-5.\nIn general, RAW264.7 cells or BMDM were incubated with various concentrations of conjugates for 18 hours at 37° C., 5% CO2 and culture supernatants were collected. The levels of cytokines (IL-6, IL-12 or TNF-α in the supernatants were determined by ELISA (BD Biosciences Pharmingen, La Jolla, Calif.) (Cho, H. J et al., “Immunostimulatory DNA-based vaccines induce cytotoxic lymphocyte activity by a T-helper cell-independent mechanism” [see comments], Nat Biotechnol 18, 509-14 (2000)), and the results presented in FIG. 2A-D. Data are mean±SEM of triplicates and are representative of three independent experiments. Minimum detection levels of these cytokines were 15 pg/mL."}},
  "data": [
    {"smiles": "CCCCCCCC/C=C\\CCCCCCCC(=O)OCC(COP(=O)(O)OCCNC(=O)CCc1cn(CCOCCOCCOCCOCCOCCOCCOCCOCCOCCOCCNC(=O)c2ccc(Cn3c(O)nc4c(N)nc(OCCOC)nc43)cc2)nn1)OC(=O)CCCCCCC/C=C\\CCCCCCCC", "note": "(stereo not drawn) [Compound 9, 2-(3-(1-(1-(4-((6-amino-8-hydroxy-2-(2-methoxyethoxy)-9H-purin-9-yl)methyl)phenyl)-1-oxo-5,8,11,14,17,20,23,26,29,32-decaoxa-2-azatetratriacontan-34-yl)-1H-1,2,3-triazole-4-yl)propanamido)ethyl 2,3-bis(oleoyloxy)propyl phosphate]", "values": [
      {"measurement": "order of TLR7 conjugate potency", "setting": "TLR7 [1]", "value": "(4b)>(6)>(9)>/=SM>(8)"},
      {"measurement": "agonist activity (IL-12, IL-6)", "setting": "TLR7 [2]", "value": "active"}
    ]},
    {"smiles": "CCCCCCCC/C=C\\CCCCCCCC(=O)OCC(COP(=O)(O)OCCNC(=O)c1ccc(Cn2c(=O)[nH]c3c(N)nc(OCCOC)nc32)cc1)OC(=O)CCCCCCC/C=C\\CCCCCCCC", "note": "(stereo not drawn) [Compound 6, 2-(4-((6-amino-2-(2-methoxyethoxy)-8-oxo-7H-purin-9(8H)-yl)methyl)benzamido)ethyl 2,3-bis(oleoyloxy)propyl phosphate]", "values": [
      {"measurement": "order of TLR7 conjugate potency", "setting": "TLR7 [1]", "value": "(4b)>(6)>(9)>/=SM>(8)"},
      {"measurement": "agonist activity (IL-12, IL-6)", "setting": "TLR7 [2]", "value": "active"}
    ]},
    {"smiles": "COCCOc1nc(N)c2nc(O)n(Cc3ccc(C(=O)NCCOCCOCCOCCOCCOCCOCCOCCOCCOCCOCCn4cc(CCC(=O)O)nn4)cc3)c2n1", "note": "[Compound 8, 3-(1-(1-(4-((6-amino-8-hydroxy-2-(2-methoxyethoxy)-9H-purin-9-yl)methyl)phenyl)-1-oxo-5,8,11,14,17,20,23,26,29,32-decaoxa-2-azatetratriacontan-34-yl)-1H-1,2,3-triazol-4-yl)propanoic acid]", "values": [
      {"measurement": "order of TLR7 conjugate potency", "setting": "TLR7 [1]", "value": "(4b)>(6)>(9)>/=SM>(8)"},
      {"measurement": "agonist activity (IL-12, IL-6)", "setting": "TLR7 [2]", "value": "active"}
    ]}
  ]
}
